Patent US6911475B1, “Use of nicotine or its derivatives in a drug for treating neurological disease, in particular Parkinson's disease” (Assistance Publique-Hopitaux de Paris, priority 1999, dated 2005)
Like-named read-outs stand apart in the source and are kept apart here.

Key:
Parkinson's disease [1] = tested on: Parkinson's disease
Procedure: (§1) The physical symptoms studied were: tremor, axial rigidity, gait and speech. The neuro-psychological symptoms were memory and sexual activity.
(§2) Over a period of six months, nicotine patches were administered to the patient, firstly using increasing doses over the first three months to reach a dose of 102 mg per day and then by combining two types of patch, namely a patch in the form of a slow release patch (patch P) and rapid release patches (patch R). Each patch P contained 21 mg of nicotine and each patch R contained 15 mg of nicotine.
Overall, the daily dose was 21 mg the first month and stabilized at 102 mg from the fourth month, divided into 42 mg under slow release and 60 mg under rapid release.
Concomitantly, L-DOPA was administered in a decreasing dose with time; in contrast, the bromocriptine dose was unchanged and remained at 30 mg per day over the entire treatment, as shown in Table II below.

Parkinson's disease [2] = tested on: Parkinson's disease; remark: listed apart in the source
Procedure: Clinical evaluation of the effect of the drug of the invention and of the treatment method was carried out using conventional UPDRS I, II and III neurological tests. These tests enabled both neuro-psychological and physical effects to be measured.
The UPDRS I test measures, on a scale of 0 to 4, mentation, behaviour and mood of the patient, taking into account the criteria of intellectual impairment, thought disorder, depression and motivation/initiative.
The UPDRS II test measures a series of sensory or motor physical tests, also on a scale of 0 to 4.
The UPDRS III test measures the motor activity of the patient, again on a scale of 0 to 4.
Zero indicates a normal state and four indicates maximum perturbation.
Clinical evaluation was based on the L-DOPA test and was carried out as follows:
The UPDRS test used is described below.
It consisted of halting the L-DOPA therapy to a zero dose 12 to 24 hours before the test.
The next day, every half hour, the condition and the clinical changes in the patient was measured during stoppage (“off” period, no L-DOPA) then the clinical changes during resumption (“on” period with L-DOPA). The time was measured using a chronometer.
This test was carried out with UPDRS measurements as described above: • motor UPDRS (Unified Parkinson's Disease Rating Scale); • UPDRS I (mental state of patient); • UPDRS II (daily life, on-off); ADL (activities of daily living); • Self-evaluation test (test carried out by the patient, verification and confirmation by physician of fluctuations in on-off periods during the day).

Parkinson's disease [3] = tested on: Parkinson's disease; remark: listed apart in the source
Procedure: as §1, §2

[4] = Re-administer nicotine at 102 mg/kg/d, after a period without nicotine

Structure (SMILES): CN1CCCC1c1cccnc1 (centres unmarked) [nicotine]
- Axial rigidity (Parkinson's disease [1]; [4]): 0
- Gait (Parkinson's disease [1]; [4]): 0
- Speech (Parkinson's disease [1]; [4]): 0
- Tremor (Parkinson's disease [1]; [4]): 1
- Axial rigidity (Parkinson's disease [1]; With nicotine treatment): 0
- Gait (Parkinson's disease [1]; With nicotine treatment): 0
- Speech (Parkinson's disease [1]; With nicotine treatment): 0
- Tremor (Parkinson's disease [1]; With nicotine treatment, patient, concomitant L-DOPA and 30 mg/day bromocriptine, 0 = normal, 4 = maximum perturbation): 1
- Axial rigidity (in words) (Parkinson's disease [1]; nicotine treatment, Table III): completely abolished
- Gait and speech (in words) (Parkinson's disease [1]; nicotine treatment, Table III): normalised
- Symptomatic effect of stopping administration of nicotine (Parkinson's disease [1]; stopping nicotine in the eighth month): no symptomatic effect
- UPDRS I (mental state) (Parkinson's disease [2]; With nicotine treatment (6 months later), day 0 without nicotine: 10): 0
- UPDRS II off (daily activity, ADL) (Parkinson's disease [2]; With nicotine treatment (6 months later), off = no L-DOPA, day 0 without nicotine: 22): 10
- UPDRS II on (daily activity, ADL) (Parkinson's disease [2]; With nicotine treatment (6 months later), on = with L-DOPA, day 0 without nicotine: 13): 6
- UPDRS score for the "off" periods (FIG. 2) (Parkinson's disease [2]; no L-DOPA, 30 mg bromocriptine, over nicotine treatment, except in the seventh month (nicotine interrupted)): reduction in the score
- UPDRS measurements in the "on" periods (FIG. 2) (Parkinson's disease [2]; with L-DOPA (250 mg first test, 187.50 mg after six months), 30 mg bromocriptine, over nicotine treatment): constant decrease
- Sexual problems and urinary dysfunction (Parkinson's disease [3]; after four months of treatment, problems present for two years): completely re-established functions
- Depressive episodes (Parkinson's disease [3]; under nicotine treatment): reduced
- Memory disorders (Parkinson's disease [3]; under nicotine treatment): reduced
- Neuro-psychological manifestations of Parkinson's disease (Parkinson's disease [3]; within six months from commencing treatment): disappeared completely
